Data from PubChem BioAssay AID2060896 (Molecular Pharmacology Branch, DTP, NCI, 2025).

Test system: 941728-121-R-J1-PDC complex spheroid viability
Experiment: Anticancer human tumor 941728-121-R-J1-PDC patient-derived lung adenocarcinoma cell line growth inhibition [RAS]
Conditions: for IC50: curve of first compound; for viability, T/C: stronger effect = lower value
From the text: RAS pathway inhibitors in Combinations in Complex Spheroids
A high-throughput screen of multi-cell type tumor spheroids was designed to identify active combinations of RAS pathway inhibitors and targeted small molecules. Complex spheroids include a stromal component modeled by human endothelial cells (HUVEC) and fibroblasts modeled by human mesenchymal stem cells (MSCs). The concentration ranges selected for each drug and investigational agent were based upon clinically achievable concentrations if the clinical Cmax of the agent was known.
Compounds. The drugs and investigational agents: abemaciclib (NSC768073), cobimetinib (NSC768068), divarasib (GDC6063, NSC841802), docetaxel (NSC628503), GDC-1971 (RLY-1971, NSC841576), gemcitabine (NSC613327), inavolisib (NSC800729), ipatasertib (NSC767898), KB-0742 (NSC834161), MRTX-1133 (NSC836407), osimertinib (NSC779217), RMC-4630 (NSC839698), RMC-6236 (NSC851965), RMC-6291 (NSC852671), Ro-3306 (NSC812927), sapanisertib (NSC764658), SN-38 (NSC673596), staurosporine (NSC755774), SY5609 (NSC837396), and tovorafenib (DAY101, NSC766906), were obtained from the National Cancer Institute (NCI) Developmental Therapeutics Program Chemical Repository. The FDA-approved anticancer drug set is available from the NCI Developmental Therapeutics Program. […] The stock solutions were prepared in dimethyl sulfoxide (DMSO, Sigma-Aldrich, St. Louis, MO, cat. D2650) at 800-fold the tested concentration and stored at -70 degrees C prior to their use. All drugs and investigational agents were tested over a range starting from a high concentration at or near the clinical Cmax and decreasing in half-log increments. If the clinical Cmax for an agent had not been determined, the highest concentration tested was 10 microM.
Cell Culture. All cells were maintained in an incubator at 37 degrees C and 5% CO2 with 95% humidity. The PDC lines were cultured according to standard operating procedures established by the NCI PDMR. All PDCs were thawed and cultured in Matrigel-coated flasks prepared with a working solution of 1X Ham's F-12 nutrient mix, without supplementation (Invitrogen, Waltham, MA, cat. 11765054), 100 U/mL penicillin-streptomycin (Invitrogen, cat. 15140122), and 2.5% Matrigel (Corning Inc., Corning, NY, cat. 354248) for the first three passages. The 362531-283-R-J2-PDC and 782815-120-R-J1-PDC lines were cultured in 6C/Colon 1B media, which includes advanced DMEM/F-12 (Thermo Fisher Scientific, cat. 12634028), 10 mM HEPES (Thermo Fisher Scientific, cat. 15630080), 1X GlutaMAX supplement (Thermo Fisher Scientific, cat. 35050061), 0.1 mg/mL primocin (InvivoGen, San Diego, CA, cat. ant-pm-2), 10% defined fetal bovine serum, heat inactivated (HyClone Laboratories Inc., Logan, UT, cat. SH30070.03HI), 50% L-WRN conditioned media (ATCC, cat. CRL-3276), 1.25 mM N-Acetyl-L-cysteine (Sigma-Aldrich, cat. A9165), 10 mM nicotinamide (Sigma-Aldrich, cat. N0636), 1X B-27 supplement (Thermo Fisher Scientific, cat. 17504044), 1X N-2 supplement (Thermo Fisher Scientific, cat. 17502048), 50 ng/mL human EGF (Thermo Fisher Scientific, cat. PHG0311), and 10 microM Y-27632 dihydrochloride (Tocris Bioscience, cat. 1254). The K12877-001-R-J1-PDC line was cultured in 6I media, which includes all 6C/Colon 1B media plus 10 ng/mL human FGF-10 (PeproTech, cat. 100-26), 1 ng/mL human FGF-2 (PeproTech, cat. 100-18B), 1 µM prostaglandin E2 (Tocris Bioscience, cat. 2296), […] hydrocortisone (Sigma-Aldrich, cat. H4001), and […] bovine insulin (Sigma-Aldrich, cat. I6634). The K86415-001-R-J1-PDC line was cultured in 6D media, which includes all 6C/Colon 1B media components minus the L-WRN conditioned media. The 485176-168-R4-J1-PDC was cultured in PANC media, which includes all 6C/Colon 1B media plus 100 ng/mL human FGF-10 (PeproTech, cat. 100-26), 500 nM SB-431542 (Selleckchem, cat. S1067), and 10 nM gastrin (Tocris Bioscience, cat. 3006). […]
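Note: spheroids exposed to compounds for 7 days before readout.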
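Throughout, for viability, T/C: 100% = DMSO vehicle control viability.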

**Q.** How did the IC50 (second compound 0.0316 µM) turn out when `CCN1CCN(Cc2ccc(Nc3ncc(F)c(-c4cc(F)c5nc(C)n(C(C)C)c5c4)n3)nc2)CC1` + C#Cc1c(F)ccc2cc(O)cc(-c3ncc4c(N5CC6CCC(C5)N6)nc(OCC56CCCN5CC(F)C6)nc4c3F)c12 was run?
**A.** > 1000 nM

**Q.** And the IC50 (second compound 0.1 µM)?
**A.** > 1000 nM

**Q.** And the IC50 (second compound 0.316 µM)?
**A.** > 1000 nM

**Q.** What about the IC50 (second compound 1 µM) of the same compound?
**A.** < 3.16 nM

**Q.** What about the IC50 (second compound 3.16 µM) of the same compound?
**A.** < 3.16 nM

**Q.** What about the IC50 (second compound 10 µM) of the same compound?
**A.** < 3.16 nM

**Q.** What about the viability, T/C (second compound 0.0316 µM, first compound 0.00316 µM) of the same compound?
**A.** 75.4%

**Q.** What about the viability, T/C (second compound 0.0316 µM, first compound 0.01 µM) of the same compound?
**A.** 70.4%

**Q.** What about the viability, T/C (second compound 0.0316 µM, first compound 0.0316 µM) of the same compound?
**A.** 58%

**Q.** What about the viability, T/C (second compound 0.0316 µM, first compound 0.1 µM) of the same compound?
**A.** 49%

**Q.** And the viability, T/C (second compound 0.0316 µM, first compound 0.316 µM)?
**A.** 58%

**Q.** What about the viability, T/C (second compound 0.0316 µM, first compound 1 µM) of the same compound?
**A.** 59.7%

**Q.** What about the viability, T/C (second compound 0.1 µM, first compound 0.00316 µM) of the same compound?
**A.** 71.4%

**Q.** What about the viability, T/C (second compound 0.1 µM, first compound 0.01 µM) of the same compound?
**A.** 62%

**Q.** And the viability, T/C (second compound 0.1 µM, first compound 0.0316 µM)?
**A.** 52.9%

**Q.** And the viability, T/C (second compound 0.1 µM, first compound 0.1 µM)?
**A.** 46.7%

**Q.** What about the viability, T/C (second compound 0.1 µM, first compound 0.316 µM) of the same compound?
**A.** 55.9%

**Q.** And the viability, T/C (second compound 0.1 µM, first compound 1 µM)?
**A.** 68.9%

**Q.** And the viability, T/C (second compound 0.316 µM, first compound 0.00316 µM)?
**A.** 55.6%

**Q.** What about the viability, T/C (second compound 0.316 µM, first compound 0.01 µM) of the same compound?
**A.** 56.8%

**Q.** What about the viability, T/C (second compound 0.316 µM, first compound 0.0316 µM) of the same compound?
**A.** 38.3%

**Q.** And the viability, T/C (second compound 0.316 µM, first compound 0.1 µM)?
**A.** 45.2%

**Q.** What about the viability, T/C (second compound 0.316 µM, first compound 0.316 µM) of the same compound?
**A.** 51%

**Q.** And the viability, T/C (second compound 0.316 µM, first compound 1 µM)?
**A.** 57.3%

**Q.** What about the viability, T/C (second compound 1 µM, first compound 0.00316 µM) of the same compound?
**A.** 38.2%

**Q.** And the viability, T/C (second compound 1 µM, first compound 0.01 µM)?
**A.** 34.7%

**Q.** And the viability, T/C (second compound 1 µM, first compound 0.0316 µM)?
**A.** 31.4%

**Q.** What about the viability, T/C (second compound 1 µM, first compound 0.1 µM) of the same compound?
**A.** 35.5%

**Q.** And the viability, T/C (second compound 1 µM, first compound 0.316 µM)?
**A.** 41.7%

**Q.** What about the viability, T/C (second compound 1 µM, first compound 1 µM) of the same compound?
**A.** 50.1%

**Q.** And the viability, T/C (second compound 3.16 µM, first compound 0.00316 µM)?
**A.** 28.8%

**Q.** What about the viability, T/C (second compound 3.16 µM, first compound 0.01 µM) of the same compound?
**A.** 26.4%

**Q.** What about the viability, T/C (second compound 3.16 µM, first compound 0.0316 µM) of the same compound?
**A.** 31.3%

**Q.** And the viability, T/C (second compound 3.16 µM, first compound 0.1 µM)?
**A.** 25.3%

**Q.** And the viability, T/C (second compound 3.16 µM, first compound 0.316 µM)?
**A.** 30.9%

**Q.** And the viability, T/C (second compound 3.16 µM, first compound 1 µM)?
**A.** 36.2%

**Q.** What about the viability, T/C (second compound 10 µM, first compound 0.00316 µM) of the same compound?
**A.** 23.5%

**Q.** And the viability, T/C (second compound 10 µM, first compound 0.01 µM)?
**A.** 20.9%

**Q.** And the viability, T/C (second compound 10 µM, first compound 0.0316 µM)?
**A.** 21.9%

**Q.** What about the viability, T/C (second compound 10 µM, first compound 0.1 µM) of the same compound?
**A.** 19.8%

**Q.** And the viability, T/C (second compound 10 µM, first compound 0.316 µM)?
**A.** 18.4%

**Q.** What about the viability, T/C (second compound 10 µM, first compound 1 µM) of the same compound?
**A.** 16.5%
